We go through two compounds from ChEMBL document CHEMBL1144335, “7alpha,11beta-Dimethyl-19-nortestosterone: a potent and selective androgen response modulator with prostate-sparing properties” (Bioorg Med Chem Lett, 2005).

Assay [1] has as its target Estrogen receptor (Rattus norvegicus) (UniProt P06211+Q62986). Put plainly: Binding affinity for estrogen receptor in rat (n=3).
For assay [2], the target named is T1, Androgen receptor (Rattus norvegicus) (UniProt P15207).
T1 sequence (whole entry): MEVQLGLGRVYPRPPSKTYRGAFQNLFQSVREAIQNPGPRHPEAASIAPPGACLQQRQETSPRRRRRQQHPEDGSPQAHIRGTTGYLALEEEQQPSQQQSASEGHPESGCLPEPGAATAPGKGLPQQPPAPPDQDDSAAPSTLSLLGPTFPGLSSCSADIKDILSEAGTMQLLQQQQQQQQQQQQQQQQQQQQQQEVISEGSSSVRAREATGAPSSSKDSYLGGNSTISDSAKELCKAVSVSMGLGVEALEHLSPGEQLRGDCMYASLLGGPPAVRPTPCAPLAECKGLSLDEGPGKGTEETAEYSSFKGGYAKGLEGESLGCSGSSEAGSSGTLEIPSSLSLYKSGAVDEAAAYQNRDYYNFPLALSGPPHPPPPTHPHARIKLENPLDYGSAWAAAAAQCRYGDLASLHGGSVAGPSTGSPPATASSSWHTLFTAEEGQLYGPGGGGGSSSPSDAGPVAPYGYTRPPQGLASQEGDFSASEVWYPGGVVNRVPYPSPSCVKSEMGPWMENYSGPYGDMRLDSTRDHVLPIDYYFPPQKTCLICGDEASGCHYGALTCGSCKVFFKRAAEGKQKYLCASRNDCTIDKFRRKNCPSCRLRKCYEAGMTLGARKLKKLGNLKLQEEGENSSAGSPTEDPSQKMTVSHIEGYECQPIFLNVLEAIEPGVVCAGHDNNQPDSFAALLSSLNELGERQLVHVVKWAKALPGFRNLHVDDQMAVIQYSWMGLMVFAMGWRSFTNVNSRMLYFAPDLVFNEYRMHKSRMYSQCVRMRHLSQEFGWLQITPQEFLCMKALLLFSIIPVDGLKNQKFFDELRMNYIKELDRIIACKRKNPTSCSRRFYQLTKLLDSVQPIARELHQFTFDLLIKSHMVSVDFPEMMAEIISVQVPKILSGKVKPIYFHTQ
As to the kind of experiment: Relative binding affinity for rat androgen receptor compared to dihydrotestosterone (100) (n=4).

The structures appear in SMILES notation.

For the compound `C[C@@H]1CC2=CC(=O)CCC2C2C1C1CC[C@H](O)[C@@]1(C)C[C@@H]2C` (stereo partly drawn), the Binding affinity was 0.6 in assay [1] and 194 in assay [2].

In assay [2], `C[C@H]1C[C@@]2(C)C(CC[C@@H]2O)C2C1C1CCC(=O)C=C1C[C@@H]2C` (stereo partly drawn) yielded a Binding affinity of 22.
